Reference: ChEMBL document CHEMBL5120865, “Exploration of 6-methyl-7-(Hetero)Aryl-7-Deazapurine ribonucleosides as antileishmanial agents” (Eur J Med Chem, 2022)
pEC50: −log10 of the molar value. Several values for one entry are separate records, joined by “and”; a condition that tells them apart may be missing. Equal values may be shown once.

Legend:
[1] = Tmax in golden hamster infected with Leishmania infantum MHOM/MA(BE)/67 amastigotes at 50 mg/kg, po SID and measured after 10 days by LC-MS/MS analysis; assay type: ADME, organism-based, Mesocricetus auratus; conditions: in vivo, time 10 day
[2] = Metabolic stability in golden hamster liver microsomes S9 fraction assessed as CYP450-mediated metabolism by measuring parent compound remaining measured after 15 mins in presence of NADPH; assay type: ADME, subcellular, Mesocricetus auratus; conditions: read-out: Stability
[3] = Cytotoxicity against human MRC5 cells assessed as reduction in cell viability incubated for 3 days by resazurin dye based fluorescence analysis; assay type: toxicity; conditions: time 3 day
Cytochrome P450 = Cytochrome P450 (Homo sapiens, UniProt P04798+P05177+P05181+P08684+P10632+P10635+P11509+P11712+P13584+P20813+P20815+P20853+P24462+P24903+P33260+P33261+P51589+P78329+P98187+Q02928+Q08477+Q16678+Q16696+Q5TCH4+Q6VVX0+Q7Z449+Q8TAV3+Q96SQ9+Q9HB55); test: Metabolic stability in human liver microsomes S9 fraction assessed as CYP450-mediated metabolism by measuring parent compound remaining measured after 60 mins in presence of NADPH; assay type: ADME, subcellular; conditions: read-out: Stability
[4] = Metabolic stability in golden hamster liver microsomes S9 fraction assessed as UGT-mediated metabolism by measuring parent compound remaining measured after 30 mins in presence of NADPH; assay type: ADME, subcellular, Mesocricetus auratus; conditions: read-out: Stability
[5] = Cytotoxicity against Swiss mouse peritoneal macrophages assessed as reduction in cell viability measured after 5 days by microscopic analysis; assay type: toxicity, cell-based, Peritoneal macrophage; conditions: time 5 day
[6] = Selectivity index, ratio of CC50 for Cytotoxicity against Swiss mouse peritoneal macrophages to EC50 for intracellular Leishmania infantum MHOM/MA(BE)/67 ITMAP263 amastigotes infected in Swiss mouse peritoneal macrophages; assay type: toxicity, cell-based; conditions: read-out: Ratio CC50/EC50
[7] = Volume of distribution in golden hamster infected with Leishmania infantum MHOM/MA(BE)/67 amastigotes at 50 mg/kg, po SID and measured after 10 days by LC-MS/MS analysis; assay type: ADME, organism-based, Mesocricetus auratus; conditions: in vivo, 240 h, time 10 day
Leishmania infantum [8] = test: Antileishmanial activity against intracellular Leishmania infantum MHOM/MA(BE)/67 amastigotes infected in golden hamster assessed as reduction of amastigote burdens in liver at 50 mg/kg, po SID for 10 days by geimsa staining based microscopic analysis; assay type: functional; design: scale not given: the % may be the effect or the level left; conditions: time 10 day
[9] = molecular target: T1, UDP-glucuronosyltransferases (UGTs) (Homo sapiens, UniProt O60656+O75310+O75795+P06133+P0DTE4+P0DTE5+P16662+P19224+P22309+P22310+P35503+P35504+P36537+P54855+Q6UWM9+Q9BY64+Q9HAW7+Q9HAW8+Q9HAW9); test: Metabolic stability in human liver microsomes S9 fraction assessed as UGT-mediated metabolism by measuring parent compound remaining measured after 30 mins in presence of NADPH; assay type: ADME, subcellular; conditions: read-out: Stability
[10] = Metabolic stability in mouse liver microsomes S9 fraction assessed as CYP450-mediated metabolism by measuring parent compound remaining measured after 30 mins in presence of NADPH; assay type: ADME, subcellular; conditions: read-out: Stability
[11] = Half life in golden hamster infected with Leishmania infantum MHOM/MA(BE)/67 amastigotes at 50 mg/kg, po SID and measured after 24 hrs by LC-MS/MS analysis; assay type: ADME, organism-based, Mesocricetus auratus; conditions: in vivo
[12] = Metabolic stability in mouse liver microsomes S9 fraction assessed as UGT-mediated metabolism by measuring parent compound remaining measured after 60 mins in presence of NADPH; assay type: ADME, subcellular; conditions: read-out: Stability
Trypanosoma cruzi = test: Antitrypanosomal activity against nifurtimox-sensitive Tulahuen CL2 amastigotes expressing beta galactosidase infected in human MRC5 cells assessed as inhibition of parasite growth using chlorophenol red beta-D-galactopyranoside as substrate and measured after 7 days by spectrophotometric analysis; assay type: functional, organism-based; conditions: Tulahuen CL2, MRC5, 168 h, read-out: EC50
[13] = AUC (0 to 24) in golden hamster infected with Leishmania infantum MHOM/MA(BE)/67 amastigotes at 50 mg/kg, po SID and measured after 10 days by LC-MS/MS analysis; assay type: ADME, organism-based, Mesocricetus auratus; design: dose 50 mg/kg, time 10 day, route po; conditions: in vivo
[14] = Clearance in golden hamster infected with Leishmania infantum MHOM/MA(BE)/67 amastigotes at 50 mg/kg, po SID and measured after 10 days by LC-MS/MS analysis; assay type: ADME, organism-based, Mesocricetus auratus; conditions: in vivo, time 10 day
[15] = Tmax in golden hamster infected with Leishmania infantum MHOM/MA(BE)/67 amastigotes at 50 mg/kg, po SID and measured after 24 hrs by LC-MS/MS analysis; assay type: ADME, organism-based, Mesocricetus auratus; conditions: in vivo
Leishmania infantum [16] = test: (§1) Antileishmanial activity against sodium stibogluconate and potassium antimonyl tartrate resistant intracellular Leishmania infantum MHOM/FR/96/LEM3323-CI4 promastigotes infected in Swiss mouse peritoneal macrophages assessed as inhibition of parasite growth measured after 96 hrs by microscopic analysis; assay type: functional, organism-based; conditions: MHOM/FR/96/LEM3323-CI4, Peritoneal macrophage
[17] = Metabolic stability in mouse liver microsomes S9 fraction assessed as CYP450-mediated metabolism by measuring parent compound remaining measured after 60 mins in presence of NADPH; assay type: ADME, subcellular; conditions: read-out: Stability
[18] = molecular target: T1, UDP-glucuronosyltransferases (UGTs); test: Metabolic stability in human liver microsomes S9 fraction assessed as UGT-mediated metabolism by measuring parent compound remaining measured after 15 mins in presence of NADPH; assay type: ADME, subcellular; conditions: read-out: Stability
[19] = Metabolic stability in mouse liver microsomes S9 fraction assessed as UGT-mediated metabolism by measuring parent compound remaining measured after 30 mins in presence of NADPH; assay type: ADME, subcellular; conditions: read-out: Stability
[20] = Toxicity in golden hamster infected with Leishmania infantum MHOM/MA(BE)/67 amastigotes assessed as body weight loss at 50 mg/kg, po SID and administered for 10 days and measured twice weekly; assay type: organism-based, Mesocricetus auratus; conditions: in vivo, 240 h, time 10 day
Leishmania infantum [21] = test: Antileishmanial activity against intracellular Leishmania infantum MHOM/MA(BE)/67 ITMAP263 amastigotes infected in Swiss mouse peritoneal macrophage assessed as inhibition of parasite growth measured after 5 days by geimsa staining based microscopic analysis; assay type: functional, organism-based; conditions: MHOM/MA(BE)/67 ITMAP263, Peritoneal macrophage, 120 h
[22] = Cmax in golden hamster infected with Leishmania infantum MHOM/MA(BE)/67 amastigotes at 50 mg/kg, po SID and measured after 10 days by LC-MS/MS analysis; assay type: ADME, organism-based, Mesocricetus auratus; design: dose 50 mg/kg, time 10 day, route po; conditions: in vivo
[23] = Half life in golden hamster infected with Leishmania infantum MHOM/MA(BE)/67 amastigotes at 50 mg/kg, po SID and measured after 10 days by LC-MS/MS analysis; assay type: ADME, organism-based, Mesocricetus auratus; conditions: in vivo, time 10 day
Leishmania infantum [24] = test: as §1, with “stibogluconate,” for “stibogluconate and”, “tartrate and MIL” for “tartrate”, “MHOM/FR/96/LEM3323-CI4 MIL5C13” for “MHOM/FR/96/LEM3323-CI4”; assay type: functional, organism-based; conditions: MHOM/FR/96/LEM3323-CI4 MIL5C13, Peritoneal macrophage
Leishmania infantum [25] = test: Antileishmanial activity against intracellular Leishmania infantum MHOM/MA(BE)/67 amastigotes infected in golden hamster assessed as reduction of amastigote burdens in bone marrow at 50 mg/kg, po SID for 10 days by geimsa staining based microscopic analysis; assay type: functional; design: scale not given: the % may be the effect or the level left; conditions: time 10 day
[26] = Volume of distribution in golden hamster infected with Leishmania infantum MHOM/MA(BE)/67 amastigotes at 50 mg/kg, po SID and measured after 24 hrs by LC-MS/MS analysis; assay type: ADME, organism-based, Mesocricetus auratus; conditions: in vivo
[27] = Metabolic stability in golden hamster liver microsomes S9 fraction assessed as CYP450-mediated metabolism by measuring parent compound remaining measured after 60 mins in presence of NADPH; assay type: ADME, subcellular, Mesocricetus auratus; conditions: read-out: Stability

## Cc1ncnc2c1c(-c1cc(Cl)ccn1)cn2[C@@H]1O[C@H](CO)[C@@H](O)[C@H]1O
[1]
  Tmax: 0.5 h
[2]
  remaining at 0.25 h: 96%
[3]
  CC50 at 72 h: > 64000 nM
Cytochrome P450
  remaining at 1 h: 75%
[4]
  remaining at 0.5 h: 92%
[5]
  CC50 at 120 h: > 64000 nM
[6]
  selectivity ratio: > 94
[7]
  Vd: 5.14 L/kg
Leishmania infantum [8]
  Activity: 52.7%
[9]
  remaining at 0.5 h: 96%
[10]
  remaining at 0.5 h: 86%
[11]
  half-life: 2.7 h
[12]
  remaining at 1 h: 100%
Trypanosoma cruzi
  pEC50: 6.08
[13]
  AUC at 240 h: 3380 ng·h/mL
[14]
  CL/F: 34.7 mL/min/kg
[15]
  Tmax: 0.5 h
Leishmania infantum [16]
  pEC50: 5.66
[17]
  remaining at 1 h: 94%
[18]
  remaining at 0.25 h: 93%
[19]
  remaining at 0.5 h: 102%
[20]
  Activity: Non-Toxic
Leishmania infantum [21]
  pEC50: 6.17
[22]
  Cmax: 1210 ng/mL and 3.2 µM
[23]
  half-life: 1.7 h
Leishmania infantum [24]
  pEC50: 6.14
Leishmania infantum [25]
  Activity: 30.8%
[26]
  Vd: 13 L/kg
[27]
  remaining at 1 h: 87%
